Laboratory results from patent publication US8889881B2, “Compound having skin-whitening, anti-oxidizing and PPAR activities and medical use therefor” (Pusan National University Industry —University Cooperation …, priority 2011, dated 2014).
“Also recorded” adds a separate entry of the source.

Key:
PPAR alpha-LBD = biological target: T1, PPAR alpha-LBD (Homo sapiens, UniProt Q07869); assay: PPAR assay, PPARα; details: for PPARα activation (competitive activation rate), compared with fenofibrate: sample final concentration 100 μM, positive control fenofibrate, FIGS. 5 and 6; for simultaneous activation of PPARα and PPARγ: summary of the PPARα and PPARγ assays, sample 100 μM
T1 sequence (Q07869 239-466 limits assumed): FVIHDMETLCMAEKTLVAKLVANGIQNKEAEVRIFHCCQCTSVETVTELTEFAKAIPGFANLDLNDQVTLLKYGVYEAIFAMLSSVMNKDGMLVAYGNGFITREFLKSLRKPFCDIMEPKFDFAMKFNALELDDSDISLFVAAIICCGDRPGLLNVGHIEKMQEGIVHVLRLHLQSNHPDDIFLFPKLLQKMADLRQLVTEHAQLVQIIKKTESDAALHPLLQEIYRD

PPAR gamma-LBD = biological target: T2, PPAR gamma-LBD (Homo sapiens, UniProt P37231); assay: PPAR assay, PPARγ; format: binding; details: sample final concentration 100 μM; positive control rosiglitazone; FIGS. 7 and 8
T2 sequence (P37231 238-503 limits assumed): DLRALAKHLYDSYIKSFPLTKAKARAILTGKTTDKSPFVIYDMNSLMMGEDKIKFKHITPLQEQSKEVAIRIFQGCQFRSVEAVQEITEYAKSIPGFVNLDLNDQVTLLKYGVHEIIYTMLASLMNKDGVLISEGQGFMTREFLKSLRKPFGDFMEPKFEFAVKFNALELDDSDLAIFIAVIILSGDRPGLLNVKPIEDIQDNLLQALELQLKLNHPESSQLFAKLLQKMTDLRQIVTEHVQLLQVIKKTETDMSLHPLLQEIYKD

simultaneous activation of PPARα and PPARγ (PPAR alpha-LBD)	melting point [°C]	Structure (SMILES)	PPARα activation (competitive activation rate), compared with fenofibrate (PPAR alpha-LBD)	PPARγ activation (competitive activation rate), compared with rosiglitazone (PPAR gamma-LBD)
simultaneously activates PPARα and PPARγ	226 to 228.1	Oc1ccc(-c2nc3cc(Cl)ccc3s2)cc1Br [Compound 95, 2-bromo-4-(5-chlorobenzo[d]thiazol-2-yl)phenol]	very excellent PPARα activation agent compared to fenofibrate	very excellent PPARγ activation agent compared to rosiglitazone
simultaneously activates PPARα and PPARγ	149.5 to 151.1	COc1cc(-c2nc3ccccc3s2)cc(OC)c1OC [Compound 24, 2-(3,4,5-trimethoxyphenyl)benzo[d]thiazole]	very excellent PPARα activation agent compared to fenofibrate	very excellent PPARγ activation agent compared to rosiglitazone
simultaneously activates PPARα and PPARγ	264.7 to 265.4	COc1ccc(-c2nc3cc(C(=O)O)ccc3[nH]2)cc1 [Compound 63, 2-(4-methoxyphenyl)-1H-benzo[d]imidazole-5-carboxylic acid]	very excellent PPARα activation agent compared to fenofibrate	very excellent PPARγ activation agent compared to rosiglitazone
simultaneously activates PPARα and PPARγ		O=C(O)c1ccc2[nH]c(-c3cc(Br)c(O)c(Br)c3)nc2c1 [Compound 70, 2-(3,5-dibromo-4-hydroxyphenyl)-1H-benzo[d]imidazole-5-carboxylic acid]	very excellent PPARα activation agent compared to fenofibrate	very excellent PPARγ activation agent compared to rosiglitazone
simultaneously activates PPARα and PPARγ	135 to 137.2	COc1ccc(-c2nc3ccccc3s2)cc1OC [Compound 20, 2-(3,4-dimethoxyphenyl)benzo[d]thiazole]	very excellent PPARα activation agent compared to fenofibrate	very excellent PPARγ activation agent compared to rosiglitazone
simultaneously activates PPARα and PPARγ		O=C(O)c1ccc2[nH]c(-c3ccc(O)c(Br)c3)nc2c1 [Compound 69, 2-(3-bromo-4-hydroxyphenyl)-1H-benzo[d]imidazole-5-carboxylic acid]	very excellent PPARα activation agent compared to fenofibrate	very excellent PPARγ activation agent compared to rosiglitazone
simultaneously activates PPARα and PPARγ		COc1ccc(-c2nc3cc(C(=O)O)ccc3[nH]2)c(OC)c1 [Compound 65, 2-(2,4-dimethoxyphenyl)-1H-benzo[d]imidazole-5-carboxylic acid]	very excellent PPARα activation agent compared to fenofibrate	very excellent PPARγ activation agent compared to rosiglitazone
simultaneously activates PPARα and PPARγ		COc1cc(-c2nc3ccccc3s2)ccc1O [Compound 16, 4-(benzo[d]thiazol-2-yl)-2-methoxyphenol]	very excellent PPARα activation agent compared to fenofibrate	very excellent PPARγ activation agent compared to rosiglitazone
	128.8 to 130.1	COc1ccc(-c2nc3cc(C(F)(F)F)ccc3s2)cc1 [Compound 34, 2-(4-methoxyphenyl)-5-(trifluoromethyl)benzo[d]thiazole]		very excellent PPARγ activation agent compared to rosiglitazone
simultaneously activates PPARα and PPARγ		COc1ccc(-c2nc3ccccc3[nH]2)c(OC)c1 [Compound 52, 2-(2,4-dimethoxyphenyl)-1H-benzo[d]imidazole]	very excellent PPARα activation agent compared to fenofibrate	very excellent PPARγ activation agent compared to rosiglitazone
simultaneously activates PPARα and PPARγ		CCOc1cc(-c2nc3ccccc3[nH]2)ccc1O [Compound 47, 4-(1H-benzo[d]imidazol-2-yl)-2-ethoxyphenol]	very excellent PPARα activation agent compared to fenofibrate	very excellent PPARγ activation agent compared to rosiglitazone
simultaneously activates PPARα and PPARγ	> 300	O=C(O)c1ccc2[nH]c(-c3ccc(O)cc3O)nc2c1 [Compound 59, 2-(2,4-dihydroxyphenyl)-1H-benzo[d]imidazole-5-carboxylic acid]	very excellent PPARα activation agent compared to fenofibrate	very excellent PPARγ activation agent compared to rosiglitazone
simultaneously activates PPARα and PPARγ		Oc1ccccc1-c1nc2ccccc2[nH]1 [Compound 53, 2-(1H-benzo[d]imidazol-2-yl)phenol]	very excellent PPARα activation agent compared to fenofibrate	very excellent PPARγ activation agent compared to rosiglitazone
simultaneously activates PPARα and PPARγ		Oc1ccc(-c2nc3ccccc3s2)cc1Br [Compound 26, 4-(benzo[d]thiazol-2-yl)-2-bromophenol]	the most excellent PPARα activation agent; also recorded: very excellent PPARα activation agent compared to fenofibrate	the most excellent PPARγ activation agent; also recorded: very excellent PPARγ activation agent compared to rosiglitazone
simultaneously activates PPARα and PPARγ		O=C(O)c1ccc2[nH]c(-c3ccc(OCc4ccccc4)cc3)nc2c1 [Compound 113, 2-(4-(benzyloxy)phenyl)-1H-benzo[d]imidazole-5-carboxylic acid]	very excellent PPARα activation agent compared to fenofibrate	very excellent PPARγ activation agent compared to rosiglitazone
simultaneously activates PPARα and PPARγ		COc1ccc(-c2nc3cc(C(=O)O)ccc3[nH]2)cc1OC [Compound 64, 2-(3,4-dimethoxyphenyl)-1H-benzo[d]imidazole-5-carboxylic acid]	very excellent PPARα activation agent compared to fenofibrate	very excellent PPARγ activation agent compared to rosiglitazone
